The results in this text go back to paper PMC7660650, “Chemical Starting Matter for HNF4α Ligand Discovery and Chemogenomics” (International Journal of Molecular Sciences, 2020).

For the first assay, the target named is T1, Gal4-HNF4α (human HNF4α LBD) (Homo sapiens, UniProt P41235).
T1 construct: uniprot entry: P41235-1, residues 142-377; expressed in transfected cells; host or cells: HEK293T
T1 sequence (P41235 142-377): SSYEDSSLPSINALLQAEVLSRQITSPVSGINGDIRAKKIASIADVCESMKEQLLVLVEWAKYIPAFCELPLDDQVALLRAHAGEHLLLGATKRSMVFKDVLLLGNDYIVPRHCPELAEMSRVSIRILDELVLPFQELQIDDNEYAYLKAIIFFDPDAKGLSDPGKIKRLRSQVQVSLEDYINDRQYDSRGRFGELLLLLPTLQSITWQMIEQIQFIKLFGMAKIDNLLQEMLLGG
Description: Hybrid Gal4-HNF4α reporter gene assay in transiently transfected HEK293T cells. The format is cell-based.
Conditions: not given
On the technique in general: A reporter such as luciferase makes a cellular process visible.
Regarding `Oc1cccc2cccnc12` [Prestw-Frag-2592, Oc1cccc2cccnc12], the “HNF4a-screening_activity_(mean_of_n=2)” value came to 0.6969.

Staying with this assay, now noted: Table S1, primary screening, 50 µM.
With `OC(c1ccccc1)c1ccccn1` (stereo not drawn) [Prestw-Frag-2238, OC(c1ccccc1)c1ccccn1], the “HNF4a-screening_activity_(mean_of_n=2)” value came out at 0.8728.

`CCCCOc1cc(C(=O)OC)ccc1N` [Prestw-Frag-2253, CCCCOc1cc(ccc1N)C(=O)OC]: the “HNF4a-screening_activity_(mean_of_n=2)” value turned out to be 0.8932.

For `Nc1nc2ccccc2o1` [Prestw-Frag-2256, Nc1nc2ccccc2o1], the “HNF4a-screening_activity_(mean_of_n=2)” value amounted to 0.8277. The same measure, in the same setting: then `NC(=O)c1nc[nH]c1N` [Prestw-Frag-2268, NC(=O)c1nc[nH]c1N], with 0.9961; and `OCc1ccncc1` [Prestw-Frag-2303, OCc1ccncc1], with 0.9833; and `N=C(N)CSCc1ccccc1` [Prestw-Frag-2348, NC(=N)CSCc1ccccc1], with 1.134. For the molecule `Clc1ccc(CNc2ccccn2)cc1` [Prestw-Frag-2356, Clc1ccc(CNc2ccccn2)cc1], the “HNF4a-screening_activity_(mean_of_n=2)” value was 1.16. As to `O=C1c2ccccc2CN1c1ccccc1` [Prestw-Frag-2360, O=C1N(Cc2ccccc12)c1ccccc1], the “HNF4a-screening_activity_(mean_of_n=2)” value was determined as 1.345.

Regarding `CCC(=O)Nc1ccc(CC(=O)O)cc1` [Prestw-Frag-2362, CCC(=O)Nc1ccc(CC(O)=O)cc1], the “HNF4a-screening_activity_(mean_of_n=2)” value is 0.9958. Same read-out and setting: for `NC(=O)C(c1ccccc1)c1ccccc1` [Prestw-Frag-2366, NC(=O)C(c1ccccc1)c1ccccc1] the value was 0.8824. Still for that read-out and setting: then `O=C(O)CCC(=O)Nc1ccccc1` [Prestw-Frag-2383, OC(=O)CCC(=O)Nc1ccccc1], with 0.9265. Still for that read-out and setting: for `COC(=O)C(O)c1ccccc1` (stereo not drawn) [Prestw-Frag-2423, COC(=O)C(O)c1ccccc1] the value was 1.193; for `CCN(CCCCO)C(C)Cc1ccc(OC)cc1` (stereo not drawn) [Prestw-Frag-2440, CCN(CCCCO)C(C)Cc1ccc(OC)cc1], 1.361. Consider `Nc1ccccn1` [Prestw-Frag-2443, Nc1ccccn1], for which the “HNF4a-screening_activity_(mean_of_n=2)” value was determined as 1.112.

For the molecule `COCCOC(=O)c1ccc(N)cc1` [Prestw-Frag-2453, COCCOC(=O)c1ccc(N)cc1], the “HNF4a-screening_activity_(mean_of_n=2)” value is 1.565. Same read-out and setting: for `O=C1CCc2ccccc2N1` [Prestw-Frag-2464, O=C1CCc2ccccc2N1] the value was 1.314.

As for `Nc1ccccc1S(N)(=O)=O` [Prestw-Frag-2473, Nc1ccccc1S(N)(=O)=O], the “HNF4a-screening_activity_(mean_of_n=2)” value worked out at 1.395. On the same count and under the same terms, then `CCOc1ccccn1` [Prestw-Frag-2477, CCOc1ccccn1], with 1.372. In the case of `COC(=O)C(O)(c1ccccc1)C1CCCC1` (stereo not drawn) [Prestw-Frag-2484, COC(=O)C(O)(C1CCCC1)c1ccccc1], the “HNF4a-screening_activity_(mean_of_n=2)” value turned out to be 1.411. Still for that read-out and setting: then `CC(=O)N(CCC(=O)O)c1ccccc1` [Prestw-Frag-2487, CC(=O)N(CCC(O)=O)c1ccccc1], with 0.9613.

`c1ccc2cnccc2c1` [Prestw-Frag-2493, c1ccc2cnccc2c1]: the “HNF4a-screening_activity_(mean_of_n=2)” value is 1.292. The same measure, in the same setting: for `COc1ccc(O)cc1O` [Prestw-Frag-2499, COc1ccc(O)cc1O] the value was 1.183.

For `c1cnccn1` [Prestw-Frag-2501, c1cnccn1], the “HNF4a-screening_activity_(mean_of_n=2)” value is listed as 1.207. The same measure, in the same setting: for `CC(=O)c1ccc(O)cc1O` [Prestw-Frag-2506, CC(=O)c1ccc(O)cc1O] the value was 0.9153. With `OCc1ccc(O)cc1` [Prestw-Frag-2532, OCc1ccc(O)cc1], the “HNF4a-screening_activity_(mean_of_n=2)” value is 1.028.

For `c1ccc(C2CCNCC2)cc1` [Prestw-Frag-2537, C1CC(CCN1)c1ccccc1], the “HNF4a-screening_activity_(mean_of_n=2)” value was determined as 0.9586. The same measure, in the same setting: then `Sc1nc2ccccc2[nH]1` [Prestw-Frag-2539, Sc1nc2ccccc2[nH]1], with 1.302; and `O=C(O)c1ccccn1` [Prestw-Frag-2541, OC(=O)c1ccccn1], with 0.9518; and `Oc1nsnc1N1CCOCC1` [Prestw-Frag-2562, Oc1nsnc1N1CCOCC1], with 1.981.

Take `ClC1(Cl)CC1c1ccccc1` (stereo not drawn) [Prestw-Frag-2566, ClC1(Cl)CC1c1ccccc1]: the “HNF4a-screening_activity_(mean_of_n=2)” value was found to be 1.078. The same measure, in the same setting: then `COc1ccccc1N1CCN(CCCN)CC1` [Prestw-Frag-2569, COc1ccccc1N1CCN(CCCN)CC1], with 1.212; and `O=C(O)CNC(=O)c1ccccc1` [Prestw-Frag-2576, OC(=O)CNC(=O)c1ccccc1], with 1.001; and `O=C(O)COc1ccccc1` [Prestw-Frag-2577, OC(=O)COc1ccccc1], with 1.064. Consider `NC(=O)COc1ccccc1` [Prestw-Frag-2578, NC(=O)COc1ccccc1], for which the “HNF4a-screening_activity_(mean_of_n=2)” value stood at 1.034. The same measure, in the same setting: for `O=C(O)Cc1ccccc1` [Prestw-Frag-2579, OC(=O)Cc1ccccc1] the value was 1.086; for `NC(=O)Cc1ccccc1` [Prestw-Frag-2580, NC(=O)Cc1ccccc1], 0.9823. Same read-out and setting: then `NC(=O)c1ccncc1` [Prestw-Frag-2587, NC(=O)c1ccncc1], with 0.9347; and `Clc1cccc2ncccc12` [Prestw-Frag-2593, Clc1cccc2ncccc12], with 0.9438. Still for that read-out and setting: then `OC1c2ccccc2CCc2ccccc21` [Prestw-Frag-2600, OC1c2ccccc2CCc2ccccc12], with 0.7017; and `c1ccc(CCn2ccnc2)cc1` [Prestw-Frag-2608, C(Cn1ccnc1)c1ccccc1], with 0.9707. Take `c1ccc(Cn2ccnc2)cc1` [Prestw-Frag-2620, C(c1ccccc1)n1ccnc1]: the “HNF4a-screening_activity_(mean_of_n=2)” value is recorded as 0.9802.

Regarding `c1ccc(C(c2ccccc2)n2cncn2)cc1` [Prestw-Frag-2645, c1ncn(n1)C(c1ccccc1)c1ccccc1], the “HNF4a-screening_activity_(mean_of_n=2)” value worked out at 0.9885. Same read-out and setting: then `N#CC1(c2ccc(F)cc2)CCCCC1` [Prestw-Frag-2647, Fc1ccc(cc1)C1(CCCCC1)C#N], with 0.99. On the same count and under the same terms, for `CC1(c2ccccc2)NC(=O)NC1=O` (stereo not drawn) [Prestw-Frag-2652, CC1(NC(=O)NC1=O)c1ccccc1] the value was 0.789; for `Cc1ccc(C#N)c(=O)[nH]1` [Prestw-Frag-2669, Cc1ccc(C#N)c(=O)[nH]1], 0.9816. Still for that read-out and setting: then `O=C1CCCc2[nH]ccc21` [Prestw-Frag-2675, O=C1CCCc2[nH]ccc12], with 1.012; and `O=C(O)CCc1ncc(-c2ccccc2)o1` [Prestw-Frag-2693, OC(=O)CCc1ncc(o1)-c1ccccc1], with 0.8237. For `Cc1nc(-c2ccccc2)c(-c2ccccc2)o1` [Prestw-Frag-2695, Cc1nc(c(o1)-c1ccccc1)-c1ccccc1], the “HNF4a-screening_activity_(mean_of_n=2)” value is given as 1.374.

As for `COc1ccc(C(C)=O)c(O)c1` [Prestw-Frag-2701, COc1ccc(C(C)=O)c(O)c1], the “HNF4a-screening_activity_(mean_of_n=2)” value was 1.01. Same read-out and setting: then `Oc1ccccc1C1CCCC1` [Prestw-Frag-2706, Oc1ccccc1C1CCCC1], with 0.8607.
